Measured values from patent publication US20210309686A1, “QUATERNARY AMMONIUM SALTS OF NICOTINIC ACID AND NICOTINAMIDE MONONUCLOETIDES AND RIBOSIDES AS ANTI-AGING AGENTS” (Jumpstart Fertility Pty Ltd, priority 2018, published 2021).

Tested on: COV434 cells
Experiment: NAD Cell Assays (NAD cycling method)
Type: cell-based
Conditions: COV434 cells treated at 200 uM for 4 hr; NAD normalized to protein; salt compared mole per mole with its parent counterpart
Method: NAD levels were assayed based on the NAD cycling method of Zhu and Rand, PLoS One (2012), herein incorporated by reference. COV434 cells were maintained in 6 well plates and treated with the indicated compounds at a concentration of 200 uM for 4 hr. Media was removed, plates were washed in cold PBS and cells were scraped down in NAD extraction buffer containing 10 mM nicotinamide, 50 mM Tris HCl, 0.1% Triton X-100. Cells were homogenized by sonication for 5 seconds, and samples were centrifuged at 7,000 g for 5 min at 4 degrees. Aliquots were taken for later protein assay, and samples were then passed through 10 kDa amicon filters at 14,000 g, 30 min at 4 degrees to remove proteins from the sample. Each sample was measured in technical triplicate, with 25 μL sample added to 100 μL ADH cycling mix (0.2 mg/ml alcohol dehydrogenase enzyme, 2% ethanol, 100 mM Tris pH 8.5). Samples were allowed to cycle for 10 min at room temperature, followed by 50 μL addition of an MTT/PMS solution (0.1 mM phenazine methosulfate, 0.8 mM 3-(4,5-Dimethylthiazol-2-yl)-2,5-diphenyltetrazolium bromide), 100 mM Tris-HCl pH 8.5). Plates were then incubated for 15 min and absorbance was measured at 570 nm. NAD concentrations were extrapolated from a standard curve, and normalized to protein concentrations determined by BCA protein assay.
The fold increase is obtained through a direct comparison on a mole per mole between the compared salt and its parent counterpart.

Structure (SMILES) | Fold Increase of NAD Adjusted by Molecular Weight
O=C([O-])c1ccc[n+]([C@@H]2O[C@H](COP(=O)(O)O)[C@@H](O)[C@H]2O)c1 [I-002, (R)-3-Carboxy-2-hydroxy-N,N,N-trimethylpropan-1-aminium 1-((2R,3R,4S,5R)-5-(((hydrogenphosphonato)oxy)methyl)-3,4-dihydroxytetrahydrofuran-2-yl)pyridin-1-ium-3-carboxylate] | 1.47
O=C([O-])c1ccc[n+]([C@@H]2O[C@H](COP(=O)(O)O)[C@@H](O)[C@H]2O)c1 [I-003, 1-Carboxy-N,N,N-trimethylmethanaminium 1-((2R,3R,4S,5R)-5-(((hydrogenphosphonato)oxy)methyl)-3,4-dihydroxytetrahydrofuran-2-yl)pyridin-1-ium-3-carboxylate] | 1.51
NC(=O)c1ccc[n+]([C@@H]2O[C@H](COP(=O)([O-])O)[C@@H](O)[C@H]2O)c1 [I-005, 1-Carboxy-N,N,N-trimethylmethanaminium ((2R,3S,4R,5R)-5-(3-carbamoylpyridin-1-ium-1-yl)-3,4-dihydroxytetrahydrofuran-2-yl)methyl phosphate] | 1.35
O=C([O-])c1ccc[n+]([C@@H]2O[C@H](COP(=O)(O)O)[C@@H](O)[C@H]2O)c1 [I-006, (R)-3-Carboxy-2-hydroxy-N,N,N-trimethylpropan-1-aminium 1-((2R,3R,4S,5R)-3,4-dihydroxy-5-((phosphonatooxy)methyl)tetrahydrofuran-2-yl)pyridin-1-ium-3-carboxylate] | 1.64
O=C([O-])c1ccc[n+]([C@@H]2O[C@H](COP(=O)(O)O)[C@@H](O)[C@H]2O)c1 [I-007, 1-Carboxy-N,N,N-trimethylmethanaminium 1-((2R,3R,4S,5R)-3,4-dihydroxy-5-((phosphonatooxy)methyl)tetrahydrofuran-2-yl)pyridin-1-ium-3-carboxylate] | 1.92
